Patent publication US7605175B2, “Inhibitors of cyclin-dependent kinases, compositions and uses related thereto” (GPC Biotech AG, priority 2001, dated 2009)

Tests used:
Cdk4/cyclin D1 = biological target: T1, Cdk4/cyclin D1 (Homo sapiens, UniProt P11802); test: Biochemical kinase assay Cdk4/cyclin D1; conditions: Table 6
T1 construct: made in house; host or cells: Sf9 insect cells
Method in brief: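 Sf9-expressed Cdk/cyclin heterodimers phosphorylate GST-Rb (residues 379–928, 40 μg) with 50 μM ATP plus [γ-33P]ATP, pH 7.5, 10% DMSO, 15 min at 30 °C. Compounds 1 nM–10 μM. 33P captured on glutathione-sepharose and scintillation-counted; activity relative to DMSO control after EDTA-background subtraction.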

HCT-116 cells [1] = test: BrdU incorporation assay; type: cell-based; conditions: Homo sapiens, read-out: Brd U, concentration that inhibits BrdU incorporation by 50%
Method: This method measured the percentage of cells that incorporated the nucleotide analog, BrdU, into newly synthesized DNA as cells progressed through the S phase of the cell cycle. The inhibition of BrdU incorporation was used as a measure of a Cdk inhibitor's effect on S phase progression and DNA replication.
3 sets of HCT-116 cells (100,000 cells/set) were plated in T25 flasks and incubated with a test compound as above. Analysis was done at 24, 48, and 72 hours. BrdU was added to each T-25 flask from a stock of 10 mg/ml to a final concentration of 10 μM and the cells were incubated for an additional 16-18 hours at 37° C. The cells were then prepared for flow cytometric analysis according to manufacturer's protocol (BrdU Flow kit, BD-Pharmingen catalogue #2354KK) as follows:
Cells were harvested (adherent and floating) from the T25 flasks directly into Falcon 12×75 flow cytometric tubes as above followed by fixation and permeabilization with the addition of 100 μl of Cytofix/Cytoperm buffer (30 minutes, room temperature). The cells were then washed with 1 ml of Perm Wash buffer and the cell pellets were resuspended in 100 μl Cytoperm Plus buffer and incubated on ice for 10 minutes. The cells were then washed again with 1 ml of Perm Wash buffer and the fixation was repeated in 100 μl of Cytofix/Cyto Perm buffer for 10 minutes at room temperature. The cells were then washed with 1 ml of Perm Wash buffer. The cells were next treated for one hour at 37° C. with 100 μl DNase to expose incorporated BrdU followed by another wash step with 1 ml of Perm Wash buffer. […] Cells were protected from light and incubated at room temperature for 20-30 minutes. Following the incubation, the cells were washed with 1 ml of Perm Wash buffer, resuspended in 300 μl of 2% FBS in PBS, and analyzed on the flow cytometer. Results are presented in Table 2 as the concentration of compound (μM) that inhibits of BrdU incorporation by 50%.

HCT-116 cells [2] = test: Calcein AM viability assay, HCT-116; type: cell-based; conditions: Homo sapiens, HCT-116, plus 1 mg/ml alpha acidic glycoprotein and 45 mg/ml human serum albumin; read-out: HCT-116 IC50 Protein adjusted
Method in brief: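 Cells plated (1,000 HCT-116 in RPMI-1640/10% FCS; 4,000 IMR90 in MEM-alpha/10% FCS), adhered overnight, then given 7 doses of compound at 0-250 nM for 72 h at 37 °C. Viability read by Calcein AM fluorescence (ex 485, em 530) after 75 min; IC50 derived.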

T1 sequence (P11802 whole entry, species assumed): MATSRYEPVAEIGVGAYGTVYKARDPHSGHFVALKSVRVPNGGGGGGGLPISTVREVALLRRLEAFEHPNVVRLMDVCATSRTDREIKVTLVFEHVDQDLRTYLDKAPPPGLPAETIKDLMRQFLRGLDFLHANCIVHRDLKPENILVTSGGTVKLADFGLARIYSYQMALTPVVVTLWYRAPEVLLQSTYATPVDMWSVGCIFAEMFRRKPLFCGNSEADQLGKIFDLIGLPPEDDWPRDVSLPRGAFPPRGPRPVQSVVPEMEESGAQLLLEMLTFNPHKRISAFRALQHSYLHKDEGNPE
T1 sequence (P24385 whole entry partner, species assumed): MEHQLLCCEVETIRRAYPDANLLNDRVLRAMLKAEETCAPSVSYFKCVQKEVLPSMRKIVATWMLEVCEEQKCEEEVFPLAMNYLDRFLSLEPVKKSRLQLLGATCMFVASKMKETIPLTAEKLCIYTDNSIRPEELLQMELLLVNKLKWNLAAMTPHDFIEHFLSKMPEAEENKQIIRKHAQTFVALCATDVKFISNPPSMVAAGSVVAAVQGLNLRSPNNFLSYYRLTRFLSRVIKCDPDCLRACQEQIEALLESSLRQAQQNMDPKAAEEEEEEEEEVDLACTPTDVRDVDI

| IC50 (HCT-116 cells [1]; HCT-116, 24 h) [nM] | IC50 (HCT-116 cells [1]; HCT-116, 48 h) [nM] | IC50 (HCT-116 cells [2]) [nM] | SMILES | IC50 (Cdk4/cyclin D1) [nM] |
| --- | --- | --- | --- | --- |
| – | – | – | CC(C)N1CCN(C(=O)COc2ccc(-c3[nH]nc4c3C(=O)c3c(NC(=O)NN5CCOCC5)cccc3-4)cc2)CC1.Cl [Compound A37] | < 100 |
| < 100 | < 100 | < 1000 | CC(C)c1nn(-c2c(Cl)cccc2Cl)c2nc(Cc3ccc(O)c(CN4CCN(C(C)C)CC4)c3)[nH]c(=O)c12 [Compound C] | – |
